Assay results published in patent US12139480B2, “5-thiazolecarboxamide kinase inhibitor and uses thereof” (iOmx Therapeutics AG, priority 2018, dated 2024).

How the values were obtained:
K562 human CML tumours = settings: dasatinib 8-50 mg/kg PO once a day for 10 days, 5-days-on and 2-days off; imatinib high doses; cited from earlier work
K562 CML cells = settings: similar study; dasatinib 10 and 30 mg/kg/day; imatinib 200 mg/kg/day; cited from earlier work
M579-A2-luc tumour cells = experiment: sensitisation of tumour cells to in-vitro TNF attack, luciferase-based killing assay; assay type: cell-based; settings: TNF 10 ng/mL, compound between about 10 and 100 nM
Procedure: PANC1-luc is an HLA-A2.1+ luciferase-expressing pancreatic adenocarcinoma (PDAC) tumour cell line, and M579-A2-luc is an HLA-A2.1+ luciferase-expressing melanoma tumour cell line.
After lysis, luciferase assay buffer is added and immediately the luciferase intensity was measured by using the TECAN-Spark microplate reader.

SIK1 = target: T1, SIK1 (Homo sapiens, UniProt P57059); experiment: radiometric protein kinase assay (33PanQinase), IC50; assay type: biochemical
T1 construct: purchased ProQinase
T1 sequence (P57059 whole entry): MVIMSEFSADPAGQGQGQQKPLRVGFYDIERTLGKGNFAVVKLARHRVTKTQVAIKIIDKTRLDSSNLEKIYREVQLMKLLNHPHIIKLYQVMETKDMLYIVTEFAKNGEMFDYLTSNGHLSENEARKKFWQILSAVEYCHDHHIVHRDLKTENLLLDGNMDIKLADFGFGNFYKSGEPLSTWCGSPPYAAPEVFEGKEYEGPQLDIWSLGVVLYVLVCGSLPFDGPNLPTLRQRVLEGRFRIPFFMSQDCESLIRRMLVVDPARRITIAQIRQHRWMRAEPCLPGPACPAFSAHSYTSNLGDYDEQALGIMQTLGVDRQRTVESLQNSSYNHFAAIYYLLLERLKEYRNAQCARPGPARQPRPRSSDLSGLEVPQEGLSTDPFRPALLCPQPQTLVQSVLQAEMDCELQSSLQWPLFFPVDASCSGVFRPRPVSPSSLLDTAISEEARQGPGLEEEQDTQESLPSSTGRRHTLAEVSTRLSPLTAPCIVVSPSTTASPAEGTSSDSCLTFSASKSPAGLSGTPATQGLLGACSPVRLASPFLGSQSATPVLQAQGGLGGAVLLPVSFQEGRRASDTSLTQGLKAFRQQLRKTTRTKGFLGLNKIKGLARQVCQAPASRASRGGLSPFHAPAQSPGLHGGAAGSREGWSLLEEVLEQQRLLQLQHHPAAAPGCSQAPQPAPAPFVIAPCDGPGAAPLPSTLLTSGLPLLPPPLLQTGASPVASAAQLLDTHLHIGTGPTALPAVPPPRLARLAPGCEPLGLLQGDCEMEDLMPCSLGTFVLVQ
Procedure: (§1) Incorporation of 33Pi was determined with a microplate scintillation counter (Microbeta, Wallac).

SIK2 = target: T2, SIK2 (Homo sapiens, UniProt Q9H0K1); experiment: as above; assay type: biochemical
T2 construct: purchased ProQinase
T2 sequence (Q9H0K1 whole entry): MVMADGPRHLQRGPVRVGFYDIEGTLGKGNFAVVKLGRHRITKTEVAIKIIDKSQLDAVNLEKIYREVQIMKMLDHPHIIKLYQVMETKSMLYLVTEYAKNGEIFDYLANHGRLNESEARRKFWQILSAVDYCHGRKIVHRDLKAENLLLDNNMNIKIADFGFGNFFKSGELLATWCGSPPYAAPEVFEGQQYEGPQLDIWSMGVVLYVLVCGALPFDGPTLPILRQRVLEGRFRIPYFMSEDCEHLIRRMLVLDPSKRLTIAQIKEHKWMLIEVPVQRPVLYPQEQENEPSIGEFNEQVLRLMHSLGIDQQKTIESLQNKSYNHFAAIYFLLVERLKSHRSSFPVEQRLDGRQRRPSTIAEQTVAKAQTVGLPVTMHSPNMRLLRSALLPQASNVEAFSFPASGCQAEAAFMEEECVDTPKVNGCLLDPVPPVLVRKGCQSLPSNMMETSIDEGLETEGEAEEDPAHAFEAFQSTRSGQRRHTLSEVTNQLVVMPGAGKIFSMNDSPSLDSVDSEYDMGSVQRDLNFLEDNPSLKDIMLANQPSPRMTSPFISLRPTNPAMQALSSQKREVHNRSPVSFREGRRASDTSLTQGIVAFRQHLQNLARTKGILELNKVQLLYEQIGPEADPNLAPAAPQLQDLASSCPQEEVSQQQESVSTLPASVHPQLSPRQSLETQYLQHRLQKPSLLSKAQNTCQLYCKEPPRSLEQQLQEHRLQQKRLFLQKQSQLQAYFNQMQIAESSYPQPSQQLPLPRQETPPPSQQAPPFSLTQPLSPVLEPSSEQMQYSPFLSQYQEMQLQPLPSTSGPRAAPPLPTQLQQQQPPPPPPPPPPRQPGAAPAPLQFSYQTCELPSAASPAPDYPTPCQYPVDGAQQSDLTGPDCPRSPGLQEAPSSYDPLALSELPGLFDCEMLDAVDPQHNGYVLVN
Procedure: as §1

SIK3 = target: T3, SIK3 (Homo sapiens, UniProt Q9Y2K2); experiment: as above; assay type: biochemical
T3 construct: purchased ProQinase
T3 sequence (Q9Y2K2 whole entry): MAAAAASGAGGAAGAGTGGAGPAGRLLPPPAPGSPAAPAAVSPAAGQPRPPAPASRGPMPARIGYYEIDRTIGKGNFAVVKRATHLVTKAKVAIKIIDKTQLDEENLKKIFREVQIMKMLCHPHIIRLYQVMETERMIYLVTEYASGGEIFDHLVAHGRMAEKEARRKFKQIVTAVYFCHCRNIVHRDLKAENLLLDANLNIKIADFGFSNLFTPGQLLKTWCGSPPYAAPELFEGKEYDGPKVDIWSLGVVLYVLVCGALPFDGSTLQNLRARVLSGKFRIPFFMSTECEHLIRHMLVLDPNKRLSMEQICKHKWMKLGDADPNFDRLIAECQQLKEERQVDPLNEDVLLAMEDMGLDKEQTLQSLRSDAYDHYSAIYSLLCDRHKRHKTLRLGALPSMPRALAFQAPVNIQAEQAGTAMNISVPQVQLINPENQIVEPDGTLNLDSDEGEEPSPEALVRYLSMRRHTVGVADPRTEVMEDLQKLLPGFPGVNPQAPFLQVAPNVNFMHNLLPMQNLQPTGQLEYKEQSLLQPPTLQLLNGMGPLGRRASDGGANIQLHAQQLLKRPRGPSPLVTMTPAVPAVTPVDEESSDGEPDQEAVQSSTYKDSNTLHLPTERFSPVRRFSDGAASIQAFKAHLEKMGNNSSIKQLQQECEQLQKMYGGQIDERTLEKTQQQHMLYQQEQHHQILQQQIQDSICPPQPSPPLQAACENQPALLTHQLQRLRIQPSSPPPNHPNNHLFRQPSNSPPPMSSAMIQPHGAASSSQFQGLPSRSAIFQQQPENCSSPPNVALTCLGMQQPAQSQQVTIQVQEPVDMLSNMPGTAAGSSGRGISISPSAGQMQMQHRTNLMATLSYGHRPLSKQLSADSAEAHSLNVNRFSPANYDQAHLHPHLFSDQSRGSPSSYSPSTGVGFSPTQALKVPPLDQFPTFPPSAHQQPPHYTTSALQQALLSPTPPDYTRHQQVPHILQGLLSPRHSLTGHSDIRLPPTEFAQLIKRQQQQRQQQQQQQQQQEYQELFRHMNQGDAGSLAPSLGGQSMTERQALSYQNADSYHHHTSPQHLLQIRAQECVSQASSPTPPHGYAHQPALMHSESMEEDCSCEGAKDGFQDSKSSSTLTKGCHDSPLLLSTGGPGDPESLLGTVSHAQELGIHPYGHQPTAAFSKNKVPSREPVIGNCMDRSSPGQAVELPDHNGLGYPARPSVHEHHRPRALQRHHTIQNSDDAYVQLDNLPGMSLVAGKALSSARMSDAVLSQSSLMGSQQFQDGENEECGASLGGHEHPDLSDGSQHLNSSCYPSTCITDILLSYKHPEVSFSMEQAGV
Procedure: as §1

ABL1 wt = target: T4, ABL1 wt (Homo sapiens, UniProt P00519); experiment: as above; assay type: biochemical
T4 construct: includes the ABL1 wild-type protein (amino acids P118-S525) and mutants forms; purchased ProQinase
T4 sequence (P00519 118-535 limits assumed): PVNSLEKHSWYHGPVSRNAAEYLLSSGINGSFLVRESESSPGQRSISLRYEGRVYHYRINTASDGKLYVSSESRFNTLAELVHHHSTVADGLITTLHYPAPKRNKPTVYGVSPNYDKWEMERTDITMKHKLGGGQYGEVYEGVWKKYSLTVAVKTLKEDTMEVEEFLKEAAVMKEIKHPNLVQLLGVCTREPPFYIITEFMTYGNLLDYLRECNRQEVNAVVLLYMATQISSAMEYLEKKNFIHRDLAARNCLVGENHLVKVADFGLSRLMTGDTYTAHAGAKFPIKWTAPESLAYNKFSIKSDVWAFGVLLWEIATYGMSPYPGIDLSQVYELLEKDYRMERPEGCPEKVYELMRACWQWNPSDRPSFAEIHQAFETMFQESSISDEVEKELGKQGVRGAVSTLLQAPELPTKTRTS
Procedure: as §1

SRC (GST-HIS-tag) = SRC (GST-HIS-tag) (Homo sapiens, UniProt P12931); experiment: as above; assay type: biochemical
Chain of SRC (GST-HIS-tag) (P12931 whole entry): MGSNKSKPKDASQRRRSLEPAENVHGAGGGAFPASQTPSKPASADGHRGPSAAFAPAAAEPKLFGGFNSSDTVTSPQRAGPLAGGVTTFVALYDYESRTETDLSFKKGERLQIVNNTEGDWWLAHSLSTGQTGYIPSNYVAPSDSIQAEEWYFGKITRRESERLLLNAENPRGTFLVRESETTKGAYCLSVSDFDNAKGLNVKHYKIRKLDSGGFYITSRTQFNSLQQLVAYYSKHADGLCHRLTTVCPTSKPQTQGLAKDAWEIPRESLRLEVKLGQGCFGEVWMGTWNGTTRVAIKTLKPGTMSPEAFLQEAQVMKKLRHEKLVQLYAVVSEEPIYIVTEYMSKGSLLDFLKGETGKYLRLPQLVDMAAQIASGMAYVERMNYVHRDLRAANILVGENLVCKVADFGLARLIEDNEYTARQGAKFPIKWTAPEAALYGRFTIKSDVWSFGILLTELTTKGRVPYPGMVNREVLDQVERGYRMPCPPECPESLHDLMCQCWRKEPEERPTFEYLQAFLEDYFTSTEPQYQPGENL
Procedure: as §1

[1] = humans; prescribing information; cited from earlier work

SMILES: Cc1ccc(NC(=O)c2ccc(CN3CCN(C)CC3)cc2)cc1Nc1nccc(-c2cccnc2)n1 [imatinib]
- tumour response (K562 human CML tumours): failed to produce a comparative response
- survival / intracranial tumour growth (K562 CML cells): failed to inhibit intracranial tumour growth

SMILES: COc1c(F)cccc1NC(=O)c1cnc(Nc2cc(N3CCN(CCO)CC3)nc(C)n2)s1 [Compound B4, N-(3-fluoro-2-methoxyphenyl)-2-((6-(4-(2-hydroxyethyl)piperazin-1-yl)-2-methylpyrimidin-4-yl)amino)thiazole-5-carboxamide]
- cytotoxicity in the presence of TNF compared to inhibitor alone (M579-A2-luc tumour cells): fails to exhibit cytotoxicity
- inhibitory activity (SIK1): strong inhibitor
- inhibitory activity (SIK2): strong inhibitor
- inhibitory activity (SIK3): weak inhibitor
- inhibitory activity (ABL1 wt): potent inhibitor
- inhibitory activity (SRC (GST-HIS-tag)): potent inhibitor

SMILES: Cc1nc(Nc2ncc(C(=O)Nc3c(Cl)cccc3Br)s2)cc(N2CCN(CCO)CC2)n1 [Compound B1, N-(2-bromo-6-chlorophenyl)-2-((6-(4-(2-hydroxyethyl)piperazin-1-yl)-2-methylpyrimidin-4-yl)amino)thiazole-5-carboxamide]
- cytotoxicity in the presence of TNF compared to inhibitor alone (M579-A2-luc tumour cells): increased cytotoxicity
- inhibitory activity (ABL1 wt): pan-SIK and ABL1 & SRC inhibitor
- inhibitory activity (SRC (GST-HIS-tag)): pan-SIK and ABL1 & SRC inhibitor

SMILES: Cc1cn(-c2cc(NC(=O)c3ccc(C)c(Nc4nccc(-c5cccnc5)n4)c3)cc(C(F)(F)F)c2)cn1 [nilotinib]
- terminal / elimination half-life [1]: approximately 17 hours

SMILES: CCOc1cccc(Cl)c1NC(=O)c1cnc(Nc2cc(N3CCN(CCO)CC3)nc(C)n2)s1 [Compound B8, N-(2-chloro-6-ethoxyphenyl)-2-((6-(4-(2-hydroxyethyl)piperazin-1-yl)-2-methylpyrimidin-4-yl)amino)thiazole-5-carboxamide]
- cytotoxicity in the presence of TNF compared to inhibitor alone (M579-A2-luc tumour cells): fails to exhibit cytotoxicity
- inhibitory activity (SIK1): low inhibitory activity
- inhibitory activity (SIK2): low inhibitory activity
- inhibitory activity (SIK3): low inhibitory activity
- inhibitory activity (ABL1 wt): potent ABL1 & SRC inhibitor
- inhibitory activity (SRC (GST-HIS-tag)): potent ABL1 & SRC inhibitor
